Measured values taken from patent publication US9296751B1, “Indolizino[3,2-c]quinoline derivatives, pharmaceutically acceptable salt thereof, preparation method thereof and pharmaceutical composition for treatment of cystic fibrosis containing the same as active ingredient” (INDUSTRY-ACADEMIC COOPERATION FOUNDATION, YONSEI UNIVERSITY, priority 2014, dated 2016).

Legend:
[1] = molecular target: T1, human cystic fibrosis conductance transmembrane regulator (CFTR) (Homo sapiens, UniProt P13569); experiment: Effect upon CFTR chloride ion channel activity (YFP fluorescence quenching by iodide influx in FRT cells); format: cell-based; conditions: for Emax at 30 µM: FRT, 10 min, final concentration of 30 μM, reaction for 10 minutes, ratio based on the CFTR activity maximized by forskolin
T1 construct: expressed in transfected cells; host or cells: FRT cells (Fischer rat thyroid epithelial cells)
Method: FRT cells expressing […] specific to human cystic fibrosis conductance transmembrane regulator (CFTR) and iodide ions are cultured in the Coon's modified F-12 culture medium for 48 hours on a 96-well plate. Each well of the plate containing the cultured cells is washed three times with 200 μl of PBS buffer, and then 100 μl of PBS buffer is added to each well. The indolizino[3,2-c]quinoline derivative according to each Example is introduced to each well to a final concentration of 30 μM, followed by reaction for 10 minutes. After the completion of the reaction, the 96-well is mounted to a FLUOstar Omega microplate reader (BMG LABTECH) and 100 μl of NaI solution is added to each well. Then, YFP fluorescence reduced by the iodide ions introduced to the cells through CFTR is recorded at an interval of 0.4 seconds for 24 seconds in total, thereby evaluating the effect of each compound upon CFTR activity.
The effect of each indolizino[3,2-c]quinoline derivative upon CFTR chloride ion channel activity is calculated as an activity ratio based on the CFTR activity maximized by a well-known CFTR agonist, forskolin.

[2] = test system: Adipose-derived stem cells (ASC); experiment: Proliferation/viability MTT assay, adipose-derived stem cells; format: cell-based; conditions: 0.1-100 μM, 24 and 48 hours, FIG. 2
Method: (§1) Adipose-derived stem cells (ASC) and melanoma cells (B16 melanoma cells) are cultured in high-glucose Dulbecco's modified Eagle's medium (DMEM) with 10% fetal bovine serum (FBS) introduced thereto. Each type of cells is cultured in an incubator under the conditions of 37° C. and 5% CO2.
(§2) Cell survivability and cytotoxicity are determined in a 96-well plate by MTT assay. Each type of cells is implanted into a 6-well plate in a number of 3×10^4/well (ASC) and 4×10^4/well and cultured for 24 hours. Then, media change into high-glucose DMEM is carried out for both ASC and B16 and cultured overnight. After starvation, the cells are treated with each of the compounds according to Examples at a different concentration (0.1, 1, 10, 50, 100 μM), and further incubated for 24 hours and 48 hours under the conditions of 37° C. and 5% CO2. Then, MTT solution (5 mg/ml in PBS) is added to each well in an amount corresponding to 1/20 of the media volume, and incubation is carried out at 37° C. for 2 hours so that the cells are colored. After that, the supernatant is removed and dimethyl sulfoxide is added to carry out discoloration. The solution is determined by using an enzyme-linked immunosorbent assay (ELISA) reader at a wavelength of 595 nm.

[3] = test system: Adipose-derived stem cells (ASC) and melanoma cells (B16 melanoma cells); experiment: Cytotoxicity by MTT assay; format: cell-based; conditions: at a high concentration of 100 μM, FIG. 3 and FIG. 4
Method: as §1, §2

[4] = test system: Adipose-derived stem cells; experiment: Migration assay (mechanical wound, Incucyte zoom); format: cell-based; conditions: 0.1, 1, 10, 50 μM, 24 and 48 hours; FIG. 5 and FIG. 6
Method: Adipose-derived stem cells are implanted into a 96-well plate in a number of 3×10^4/well and cultured for 24 hours. Then, media change into high-glucose DMEM is carried out and the cells are cultured overnight. After starvation, a mechanical wound is made and the cells are treated with each of the compounds according to Examples at a different concentration (0.1, 1, 10, 50 μM). Next, the cells are incubated for 24 hours and 48 hours under the conditions of 37° C. and 5% CO2. Then, the Incucyte zoom (Essen Bioscience, USA) is photographed from the time point of treatment with each compound at an interval of 1 hour to analyze the migration of ASC.

T1 sequence (P13569 whole entry): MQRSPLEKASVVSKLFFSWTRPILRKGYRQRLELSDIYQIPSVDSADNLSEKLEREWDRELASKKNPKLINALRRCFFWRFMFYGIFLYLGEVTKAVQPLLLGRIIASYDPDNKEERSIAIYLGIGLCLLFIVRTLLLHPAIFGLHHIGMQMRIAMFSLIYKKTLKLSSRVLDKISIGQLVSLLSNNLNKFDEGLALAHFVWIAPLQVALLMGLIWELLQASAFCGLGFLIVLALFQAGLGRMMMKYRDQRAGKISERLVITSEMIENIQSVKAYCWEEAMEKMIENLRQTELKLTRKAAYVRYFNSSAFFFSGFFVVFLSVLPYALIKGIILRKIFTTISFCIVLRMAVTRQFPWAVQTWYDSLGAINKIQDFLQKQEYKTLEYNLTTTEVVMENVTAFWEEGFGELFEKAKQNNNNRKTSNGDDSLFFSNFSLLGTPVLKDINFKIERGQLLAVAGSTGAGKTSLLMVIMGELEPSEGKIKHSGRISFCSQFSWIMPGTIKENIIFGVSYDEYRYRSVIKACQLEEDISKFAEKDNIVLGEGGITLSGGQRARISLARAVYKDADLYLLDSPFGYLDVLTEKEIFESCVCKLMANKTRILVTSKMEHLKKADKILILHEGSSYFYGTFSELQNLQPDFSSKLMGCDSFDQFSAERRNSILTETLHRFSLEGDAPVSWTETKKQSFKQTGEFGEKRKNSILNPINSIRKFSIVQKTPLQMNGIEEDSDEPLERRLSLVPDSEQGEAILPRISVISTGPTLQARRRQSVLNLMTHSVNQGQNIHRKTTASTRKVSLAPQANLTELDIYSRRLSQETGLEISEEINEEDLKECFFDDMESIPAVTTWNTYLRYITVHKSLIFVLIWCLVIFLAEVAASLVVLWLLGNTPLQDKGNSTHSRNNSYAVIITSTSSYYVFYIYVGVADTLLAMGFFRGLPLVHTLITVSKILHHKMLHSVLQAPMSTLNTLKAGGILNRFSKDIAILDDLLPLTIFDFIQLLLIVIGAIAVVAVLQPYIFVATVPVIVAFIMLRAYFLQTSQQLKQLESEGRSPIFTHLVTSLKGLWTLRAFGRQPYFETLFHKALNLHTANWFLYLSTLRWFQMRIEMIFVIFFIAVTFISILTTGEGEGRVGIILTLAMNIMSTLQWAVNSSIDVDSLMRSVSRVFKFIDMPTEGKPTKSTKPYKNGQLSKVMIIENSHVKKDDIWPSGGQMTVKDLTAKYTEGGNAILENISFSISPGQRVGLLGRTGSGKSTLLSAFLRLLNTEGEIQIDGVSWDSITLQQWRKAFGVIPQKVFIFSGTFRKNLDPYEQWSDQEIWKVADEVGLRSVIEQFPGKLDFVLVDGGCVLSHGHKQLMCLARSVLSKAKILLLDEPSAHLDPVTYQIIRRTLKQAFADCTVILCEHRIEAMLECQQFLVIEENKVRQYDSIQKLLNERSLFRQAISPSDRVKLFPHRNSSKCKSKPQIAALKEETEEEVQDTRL

SMILES | Emax at 30 µM [1] [%] | proliferation of adipose-derived stem cells [2] | cytotoxicity [3] | migration ability of adipose-derived stem cells [4] | melting point [°C] | CFTR activity ratio, result in words ([1]; 30 μM, comment on Table 2)
c1ccc2c(-c3nc4ccccc4c4cc5ccccn5c34)cccc2c1 [Example 12, 6-(Naphthalen-1-yl)indolizino[3,2-c]quinoline] | 44 | highly effective | no toxicity | has migration ability | 205.6 to 206.3 | 
c1ccc(-c2nc3ccccc3c3cc4ccccn4c23)nc1 [Example 14, 6-(Pyridin-2-yl)indolizino[3,2-c]quinoline] | 82 | highly effective |  |  | 177.9 to 178.3 | high activity ratio
Cc1cccn2c1cc1c3ccccc3nc(-c3ccco3)c12 [Example 23, 6-(Furan-2-yl)-11-methylindolizino[3,2-c]quinoline] |  | highly effective |  |  | 112.4 to 113.2 | 
Brc1ccc2cc3c4ccccc4nc(-c4cccc5ccccc45)c3n2c1 [Example 27, 9-Bromo-6-(4naphthalen-1-yl)indolizino[3,2-c]quinoline] |  | highly effective | no toxicity | has migration ability | 212 to 212.7 | 
